{RR} = two arginine residues at the PNA terminus
How the values were obtained:
miR-155 downstream genes = experiment: Gene expression of miR-155 downstream genes by RT-PCR in U2932 cells; type: cell-based, human; conditions: U2932, 500 nM, 48 hours
Method: FIGS. 3A-F show cell culture-based functional assay in U2932 lymphoma cells. (3A) γtcPNA-155-TAMRA uptake in the U2932 lymphoma cell line: Representative flow cytometry traces of TAMRA fluorescence in U2932 cells after treatment with 500 nM dose of γtcPNA-155-TAMRA for 48 hours. The data was analyzed by FlowJo software. (3B) Normalized miR-155 gene expression levels in U2932 after treatment with phosphate buffer saline (PBS) as a control and with 500 nM dose of Scr-γtcPNA-155, PNA-155, γPNA-155 and γtcPNA-155 for 48 hours compared to average control U6 (n=3), data represented as mean±standard error mean (SEM), Statistical analysis was performed using Unpaired two-tailed t-test. Further, statistical analysis was performed relative to Scr-γtcPNA-155 treated cells. ***p<0.001. (3C) Gene expression level of miR-155 downstream genes, tumor suppressor proteins (FOXO3A, CUX1, SOCS1, CSF1R, JARID2, SHIP1, PICALM, PDCD4, BACH1, WEE1, TP53TG3, CASP3, PTEN) in U2932 cell line after treatment with PBS as a control and with after treatment with 500 nM of Scr-γtcPNA-155, PNA-155, γPNA-155 and γtcPNA-155 for 48 hours. Data is normalized with average GAPDH control (n=3), and represented as mean±SEM, *p<0.05. Unpaired two-tailed t-test was used for statistical analysis and analysis was performed relative to Scr-γtcPNA-155 treated cells. (3D) Gene expression level of miR-155 downstream genes MCL1 in U2932 cell line after treatment with PBS as a control and 500 nM of Scr-γtcPNA-155, PNA-155, γPNA-155 and γtcPNA-155 for 48 hours. Data is normalized with average GAPDH control (n=3), and represented as mean±SEM, *p<0.05, **p<0.01 and ***p<0.001. Statistical analysis was performed using Unpaired two-tailed t-test. Analysis was performed relative to Scr-γtcPNA-155 treated cells. (3E) Representative western blot of Mcl-1 and its quantification (n=3 technical replicate) and (3F) Caspase-3 protein and its quantification (n=3 technical replicate) in U2932 cell line after treatment with 500 nM of Scr-γtcPNA-155, PNA-155 and γtcPNA-155 for 48 hours. Data is represented as mean±SEM and unpaired two-tailed t-test was used for statistical analysis. *p<0.05 **p<0.01. Numbers above western blot panels represent relative quantification of the respective bands using ImageJ software and normalized relative to loading control and treatment control.
Gene expression by RT-PCR: 400,000 U2932 cells were seeded in a 12 well plate. The cells were treated with 500 nM PNA-155, gamma tcPNA-155, gamma PNA-155, Scr gamma tcPNA-155 or were PBS treated (control) for 48 hrs in an incubator (37° C. and 5% CO2). The cells were centrifuged at 2000 rpm for 4 mins at 4° C. The total RNA from the cell pellet was extracted using RNeasy® mini kit (Qiagen). The cDNA was prepared in thermal cycler (Bio-rad) using reverse transcriptase, RNase inhibitor, dNTPs, nuclease-free water and RT primers specific for miR-155 and U6. Random primers were used for the preparation of cDNA for downstream targets. The cDNA was amplified using miR-155 assay, U6 assay, or specific downstream target assays in CFX Connect™ Real-time PCR detection system (Bio-rad). The samples were subjected to polymerase activation (95° C. for 10 mins), followed by 40 cycles of denaturation (95° C. for 15 sec) and annealing (60° C. for 1 min). The 2^−ΔΔCT method was used to calculate the fold change in target genes.

[1] = system: U2932 subcutaneous tumors; experiment: Tumor growth in U2932 derived xenograft model; type: in vivo, NSG mice; conditions: intra-tumoral injections days 0, 7, 14
Method: Mouse tumor xenograft: Female NSG mice (NOD.Cg-Prkdcscid Il2rgtm1Wjl/SzJ, strain 005557) weighing 20-23 g were procured from Jackson laboratories. 1×10^7 U2932 cells suspended in RPMI-1640 medium were injected subcutaneously in the right and left flank of 6-week-old NSG mice. The mice developed a small bump in 2 weeks. When the tumor volume reached 100-200 mm^3, the mice were randomly assigned to the treatment group (n=6 per group).
RNA and Protein extraction from tumor samples: The mice were injected intra-tumorally with 1 mg kg-1 dose of PNA-155, γtcPNA-155, γPNA-155, Scr-γtcPNA-155 or were untreated. The injections were repeated two additional times after 1 week each. The length, breadth, and depth of the tumors were measured daily using a vernier caliper. The mice were euthanized when the tumor volumes reached 2000 mm^3. The resected tumor sections were finely minced using a sterile blade and suspended in dissociation media (4 ml) comprising of RPMI-1640, 1.2 mg/ml dispase, and 0.5 mg/ml collagenase for 90 mins at 500 rpm at 37° C. The dissociated tumors were washed with buffer saline at 2500 rpm (4 mins) at 4° C. and then suspended in 0.25% trypsin for 4 mins at room temperature. RPMI 1640 media was added to the trypsinized tumor mass, and the cells were passed through a 70 um filter. The cells were centrifuged at 2500 rpm for 4 mins at 4° C. The cell pellet was then suspended in 1×RBC lysis buffer (Sigma) and incubated on ice for 10 mins. PBS was added to the cells and the cells were passed through a 40 um filter. The cells were centrifuged at 2500 rpm for 4 mins at 4° C. The cell pellet was resuspended in 0.5% BSA in PBS. The mouse cells were removed from the tumor cells using a mouse cell depletion kit (Miltenyi Biotec) according to the manufacturer's protocol. The enriched tumor cells from each tumor sample were divided into two fractions. RNA for gene expression analysis was extracted from one tumor fraction by the same procedure as mentioned earlier. The protein for western blot analysis was extracted from the second fraction using the method described above.
For the efficacy study, each mouse received three intra-tumoral injections of either γtcPNA-155, γPNA-155 or PNA-155 on days 0, 7, 14. We noticed that the control and scrambled treated tumors reached 2000 mm^3 much faster during our study, so we could not inject a third time in these mice. […] In contrast, as stated earlier, there was no effect on the control and scrambled PNA control on the tumor volume.

Substance | reduction in MCL1 gene expression levels (miR-155 downstream genes) | tumor growth / tumor volume [1] | de-repression of miR-155 target tumor suppressor genes (miR-155 downstream genes) | increase in CSF1R levels (miR-155 downstream genes; in comparison to PNA-155) | increase in CUX1 levels (miR-155 downstream genes; in comparison to PNA-155) | increase in SHIP1 levels (miR-155 downstream genes; in comparison to PNA-155)
PNA-155: conventional full-length regular PNA (23mer), RR-ACCCCTATCACGATTAGCATTAA-RR, SEQ ID NO: 1 (all peptide nucleic acid (PNA), 5' {RR}, 3' {RR}) [reference compound] | 10% | reduced the tumor growth |  |  |  | 
γtcPNA-155: serine gamma tail-clamp anti-miR-155 PNA, RR-TJJJJ-OOO-ACCCCTATCACGATTAGCATTAA-RR, SEQ ID NO: 3 (all peptide nucleic acid (PNA); serine gamma PNA, tail-clamp TJJJJ via linkers, Arg-Arg at both ends) | 40% | reduced the tumor growth | significant de-repression | 1.8 fold | 1.6 fold | 1.4 fold

From patent US20260092085A1, “SYNTHETIC TRIPLEX PEPTIDE NUCLEIC ACID-BASED INHIBITORS FOR CANCER THERAPY” (University of Connecticut, priority 2022, published 2026)
